In brackets after ≈: the same amount, converted by molar mass.
Key:
HEp-2 = test: Cytotoxicity against human Hep2 cells after 72 hrs by SRB method; type: functional; settings: HEp-2, 72 h, read-out: ED50 (the source's name)
KB = test: Cytotoxicity against human KB cells after 72 hrs by SRB method; type: functional; settings: read-out: ED50 (the source's name)

Work on CCCCC[C@H]1CCCCCCCCCC(=O)O[C@H]2[C@H](O[C@H]3[C@H](O1)O[C@H](C)[C@H](O)[C@@H]3O)O[C@@H](C)[C@H](O[C@@H]1O[C@@H](C)[C@H](O[C@@H]3O[C@@H](C)[C@H](OC(=O)[C@@H](C)CC)[C@@H](O)[C@H]3O)[C@@H](O[C@@H]3O[C@@H](C)[C@H](O)[C@@H](O)[C@H]3O)[C@H]1OC(=O)[C@@H](C)CC)[C@H]2O [MURUCOIDIN III] yielded an EC50 (HEp-2) of over 20 µg/mL.

CCCCC[C@H]1CCCCCCCCCC(=O)O[C@H]2[C@H](O[C@H]3[C@H](O1)O[C@H](C)[C@H](O)[C@@H]3O)O[C@@H](C)[C@H](O[C@@H]1O[C@@H](C)[C@H](O[C@@H]3O[C@@H](C)[C@H](OC(=O)C(C)C)[C@@H](O)[C@H]3O)[C@@H](O[C@@H]3O[C@@H](C)[C@H](O)[C@@H](O)[C@H]3O)[C@H]1OC(=O)[C@@H](C)CC)[C@H]2O [MURUCOIDIN II] gave an EC50 (HEp-2) of over 20 µg/mL.

CCCCC[C@H]1CCCCCCCCCC(=O)O[C@H]2[C@H](O[C@H]3[C@H](O1)O[C@H](C)[C@H](O)[C@@H]3O)O[C@@H](C)[C@H](O[C@@H]1O[C@@H](C)[C@H](O[C@@H]3O[C@@H](C)[C@H](OC(=O)[C@@H](C)CC)[C@@H](O)[C@H]3O)[C@@H](O[C@@H]3O[C@H](CO)[C@@H](O)[C@H](O)[C@H]3O)[C@H]1OC(=O)[C@@H](C)CC)[C@H]2O [MURUCOIDIN IV] gave an EC50 (HEp-2) of 4 µg/mL (≈ 3.42 µM).

CCCCC[C@H]1CCCCCCCCCC(=O)O[C@H]2[C@H](O[C@H]3[C@H](O1)O[C@H](C)[C@H](O)[C@@H]3O)O[C@@H](C)[C@H](O[C@@H]1O[C@@H](C)[C@H](O[C@@H]3O[C@@H](C)[C@H](O)[C@@H](O)[C@H]3O)[C@@H](O[C@@H]3O[C@@H](C)[C@H](O)[C@@H](O)[C@H]3O)[C@H]1OC(=O)[C@@H](C)CC)[C@H]2O [MURUCOIDIN I] was tested, and the EC50 (HEp-2) was over 20 µg/mL.

With CCCCC[C@H]1CCCCCCCCCC(=O)O[C@H]2[C@@H](O)[C@H](O[C@H]3[C@H](O1)O[C@H](C)[C@H](O)[C@@H]3O)O[C@@H](C)[C@@H]2O[C@@H]1O[C@@H](C)[C@H](O[C@@H]2O[C@@H](C)[C@H](OC(=O)[C@@H](C)CC)[C@@H](O)[C@H]2O)[C@@H](O[C@@H]2O[C@H](CO)[C@@H](O)[C@H](O)[C@H]2O)[C@H]1OC(=O)[C@@H](C)CC [MURUCOIDIN V] the EC50 (HEp-2) was over 20 µg/mL.

CCCCC[C@H]1CCCCCCCCCC(=O)O[C@H]2[C@@H](O)[C@H](O[C@H]3[C@H](O1)O[C@H](C)[C@H](O)[C@@H]3O)O[C@@H](C)[C@@H]2O[C@@H]1O[C@@H](C)[C@H](O[C@@H]2O[C@@H](C)[C@H](OC(=O)[C@@H](C)CC)[C@@H](O)[C@H]2O)[C@@H](O[C@@H]2O[C@@H](C)[C@H](O)[C@@H](O)[C@H]2O)[C@H]1OC(=O)[C@@H](C)CC [STOLONIFERIN I] showed an EC50 (HEp-2) of over 20 µg/mL.

Work on CC[C@]1(O)C[C@@H]2CN(CCc3c([nH]c4ccccc34)[C@@](C(=O)OC)(c3cc4c(cc3OC)N(C)[C@H]3[C@@](O)(C(=O)OC)[C@H](OC(C)=O)[C@]5(CC)C=CCN6CC[C@]43[C@@H]65)C2)C1 [VINBLASTINE] yielded an EC50 (HEp-2) of 0.001 µg/mL (≈ 0.00123 µM) and an EC50 (KB) of 0.05 µg/mL (≈ 0.0617 µM).
